Assay results from US20060252116A1, “Icam-4 binding sites” (priority 2002, published 2006).
Ends that are not written are not given here.

Columns and labels:
Type in all cases: cell-based
[1] = system: HEL cell binding to human ICAM-4Fc; experiment: Cell adhesion assay: peptide inhibition of HEL cell binding to human ICAM-4Fc; conditions: for input cells bound expressed as a percentage of binding to ICAM-4Fc in the absence of peptides: FIG. 8, human ICAM-4Fc coated at 5 μg/ml, peptides 500 μM each, mean of three assays; for input cells bound expressed as a percentage of binding to human ICAM-4Fc in the absence of peptides: FIG. 16, human ICAM-4Fc coated at 2.5 μg/ml, peptides 750 μM each, EDTA 2 mM, mean of two assays
Description: (§1) Cell adhesion assays were performed as described in Spring et al. 2001 (supra). Immulon4 96 well plates (Dynex Technologies, Billingshurst, United Kingdom) were coated with 1 μg/well goat-antihuman-Fc (Sigma, Poole, United Kingdom) for 24 hours at 4° C., washed three times with PBS and coated with an Fc fusion ICAM-4 protein for 18 hours at 4° C. before blocking with 0.4% BSA PBS for 2 hours at 22° C. Cells were labelled with 10 μg/ml 2′,7′-bis-(2-carboxyethyl)-5-(and-6-) carboxyfluorescein acetoxymethyl ester in assay buffer (IMEM, 2 mM EGTA, 10 μg/ml human ivIgG) for 15 minutes at 37° C. HT1080 cells were activated with 80 μM phorbol myristate acetate prior to both cells being washed with assay buffer containing 2 mM Mn^2+. Cells, at 5×10^4 cells per well, were added to the ICAM-4Fc-coated plates for 30 minutes at 37° C., prior to being given repeated washes in assay buffer and read on a fluorescence microplate reader (excitation 485 nm, emission 530 nm). The percentage of bound cells was calculated after each wash. […] In peptide inhibition studies the appropriate ICAM-4Fc coating concentration for each cell line was pre-determined by titration of ICAM-4Fc and the lowest concentration at which maximal binding was achieved was used to coat the plates

[2] = system: erythroblast adhesion to ICAM-4; experiment: Peptide inhibition of erythroblast adhesion to ICAM-4; conditions: FIG. 19; 5 μg/ml ICAM-4; 5 μg/ml TS2/16 beta 1 activating antibody; peptides 500 μM
Description: We have utilised the blocking ICAM-4 peptides (i.e., SEQ ID NOs: 9, 10, 11 and 13—see Example 1) in order to inhibit the adhesion of day 4 erythroblasts to ICAM-4 (see FIG. 19). Erythroblast cultures were initiated from CD34 positive cells purified from pooled buffy coat residues (obtained from the National Blood Service, Bristol, UK) and maintained as described in Southcott et al. (1999, Blood 93: 4425-4435). Cell adhesion assays were performed as described in Example 1 above. Immulon-4 96 well plates (Dynes Technologies, Billingshurst, UK) were coated with 1 μg/well goat-antihuman-Fc (Sigma, Poole, UK) for 24 hours at 4° C., washed three times with PBS and coated with 0.25 μg/well Fc fusion ICAM-4 protein (ICAM-4Fc) for 18 hours at 4° C. before blocking with 0.4% BSA PBS for 2 hours at 22° C. Erythroblasts were labelled with 10 μg/ml 2′,7′-bis-(2-carboxyethyl)-5-(and-6-)carboxyfluorescein acetoxymethyl ester (Sigma, Poole, UK) in assay buffer (Iscoves modified Eagle medium, 2 mM EGTA, 0.1% BSA, 10 μg/ml Immune globulin intravenous (human) (Cutter Biological, Newbury, Berks, UK)) for 15 minutes at 37° C. Erythroblasts were washed with assay buffer containing 2 mM Mn^2+. Erythroblasts, at 5×10^4 cells per well, were added to the ICAM-4Fc-coated plates for 30 minutes at 37° C., prior to being cyclically read on a fluorescence microplate reader (excitation 485 nm, emission 530 nm) and washed in assay buffer. The percentage of bound cells was calculated after each wash Peptide inhibition was performed by incubating the cells with 500 μM peptide and 5 μg/ml TS2/16 (beta 1 activating antibody (IBGRL) at 0° C. for 15 minutes before their addition to the ICAM-4Fc coated plates.

[3] = system: HEL cell binding to murine ICAM-4Fc; experiment: Cell adhesion assay: peptide inhibition of HEL cell binding to murine ICAM-4Fc; conditions: FIG. 12, murine ICAM-4Fc coated at 5 μg/ml, peptides 500 μM each, mean of two assays
Description: Cell adhesion assays were performed as described in Spring et al. 2001 (supra). Immulon4 96 well plates (Dynex Technologies, Billingshurst, United Kingdom) were coated with 1 μg/well goat-antihuman-Fc (Sigma, Poole, United Kingdom) for 24 hours at 4° C., washed three times with PBS and coated with an Fc fusion ICAM-4 protein for 18 hours at 4° C. before blocking with 0.4% BSA PBS for 2 hours at 22° C. Cells were labelled with 10 μg/ml 2′,7′-bis-(2-carboxyethyl)-5-(and-6-) carboxyfluorescein acetoxymethyl ester in assay buffer (IMEM, 2 mM EGTA, 10 μg/ml human ivIgG) for 15 minutes at 37° C. HT1080 cells were activated with 80 μM phorbol myristate acetate prior to both cells being washed with assay buffer containing 2 mM Mn^2+. Cells, at 5×10^4 cells per well, were added to the ICAM-4Fc-coated plates for 30 minutes at 37° C., prior to being given repeated washes in assay buffer and read on a fluorescence microplate reader (excitation 485 nm, emission 530 nm). The percentage of bound cells was calculated after each wash. Peptide inhibition was performed by incubating the cells with 500 μM peptide at 0° C. for 15 minutes ahead of their addition, still in the presence of 500 μM peptide to the ICAM-4Fc coated plates. In peptide inhibition studies the appropriate ICAM-4Fc coating concentration for each cell line was pre-determined by titration of ICAM-4Fc and the lowest concentration at which maximal binding was achieved was used to coat the plates

[4] = system: neutrophil adhesion to ICAM-4; experiment: Peptide and antibody inhibition of neutrophil adhesion to ICAM-4; conditions: FIG. 20; 2.5 μg/ml ICAM-4; 10 μg/ml blocking antibodies; peptides 500 μM
Description: Utilising blocking β integrin subunit antibodies and our blocking ICAM-4 peptides (i.e., SEQ ID NOs: 9, 10, 11 and 13—see Example 1) in a microplate neutrophil adhesion assay. Neutrophils were purified from buffy coats (obtained from the National Blood Service, Bristol, UK) as described in Henderson et al. (1987, Biochem. J. 246: 325-329). Cell adhesion assays were performed as described in Example 1 above. Immulon-4 96 well plates (Dynes Technologies, Billingshurst, UK) were coated with 1 μg/well protein A (Sigma, Poole, UK) for 24 hours at 4° C., washed three times with PBS and coated with 0.125 μg/well Fc fusion ICAM-4 protein (ICAM-4Fc) for 18 hours at 4° C. before blocking with 0.4% BSA PBS for 2 hours at 22° C. Neutrophils were labelled with 10 μg/ml 2′,7′-bis-(2-carboxyethyl)-5-(and-6-)carboxyfluorescein acetoxymethyl ester (Sigma, Poole, UK) in assay buffer (Iscoves modified Eagle medium, 2 mM EGTA, 0.1% BSA for 15 minutes at 37° C. Neutrophils were washed with assay buffer containing 2 mM Mn^2+. Neutrophils, at 5×10^5 cells per well, were added to the ICAM-4Fc-coated plates for 10 minutes at 37° C., prior to being cyclically read on a fluorescence microplate reader (excitation 485 nm, emission 530 nm) and washed in assay buffer. The percentage of bound cells was calculated after each wash. […]

[5] = system: HT1080 cell binding to human ICAM-4Fc; experiment: Cell adhesion assay: peptide inhibition of HT1080 cell binding to human ICAM-4Fc
Description: as §1

[6] = system: HT1080 cell binding to murine ICAM-4Fc; experiment: Cell adhesion assay: peptide inhibition of HT1080 cell binding to murine ICAM-4Fc; conditions: FIG. 14, murine ICAM-4Fc coated at 5 μg/ml, peptides 500 μM each, mean of two assays
Description: as §1

Molecule | input cells bound expressed as a percentage of binding to ICAM-4Fc in the absence of peptides [1] [%] | input cells bound expressed as a percentage of binding to human ICAM-4Fc in the absence of peptides [1] [%] | effect on adhesion of day 4 erythroblasts to ICAM-4 [2] | input cells bound expressed as a percentage of binding to murine ICAM-4Fc in the absence of peptides [3] [%] | effect on adhesion between neutrophils and ICAM-4 [4] | input cells bound expressed as a percentage of binding to human ICAM4Fc in the absence of peptides ([5]; FIG. 10, human ICAM-4Fc coated at 7.5 μg/ml, peptides 500 μM each, mean of three assays) [%] | input cells bound expressed as a percentage of binding to human ICAM-4Fc in the absence of peptides ([5]; FIG. 18, human ICAM-4Fc coated at 5 μg/ml, peptides 750 μM each, EDTA 2 mM, mean of two assays) [%] | input cells bound expressed as a percentage of binding to murine ICAM-4Fc in the absence of peptides [6] [%]
svpFWVrms (SVPFWVRMS; not fully specified (residues 1, 2, 3, 7, 8, 9)) [svpFWVrms peptide] | 61 | 64 | had no effect | 67 |  |  |  | 
aWssLahcl (AWSSLAHCL; not fully specified (some residues)) [aWssLahcl peptide] |  | 50 | inhibit adhesion |  | inhibit this interaction |  |  | 
rqgktlrgp (RQGKTLRGP; not fully specified (some residues); printed as rqgktlrgp) [rqgktlrgp peptide, reference compound] | 107 | 105 | had no effect | 94 |  |  |  | 
tRwATSRit (TRWATSRIT; not fully specified (residues 1, 3, 8, 9)) [tRwATSRit peptide] | 58 | 58 | inhibit adhesion | 58 | inhibit this interaction |  |  | 
O=C(O)CN(CCN(CC(=O)O)CC(=O)O)CC(=O)O [EDTA, reference compound] | 1 | 26 |  | 8 |  | 6 | 10 | 1
